Legend:
[1] = test system: human DNA extracted from cells; test: Relative fragmentation-induced Profile Deviation: Fpg treatment and Molecular Combing of DNA from cells exposed to H2O2; assay type: cell-based
Procedure: Construction of a DNA length reference profile of a healthy cellular population and comparison of the profile obtained from the same population after exposure to a genotoxic agent is performed. High resolution DNA length reference profiles are constructed by measuring the size of thousands of DNA molecules uniformly stretched on a combed slide.
In the case of damage generated at high frequency along the genome (for instance SSB, abasic sites, methylated, alkylated, oxidated bases, photoproducts), the conversion of most of the targeted lesions into DSB generates theoretically as much new DNA extremities as much lesions were present on the molecules. When comparing the length distribution profile of the damaged sample with the undamaged reference, a Profile Deviation (PD) associated to a specific damage appears. The amount of lesions generated by the genotoxic compound can then be estimated directly from the PD. […]
For direct visualization of stretched DNA, cover-slips were mounted with 20 μL of a Block-Aid (Invitrogen, ref. B-10710)-YOYO-1 iodide (Molecular Probes, code Y3601) mixture (10000:1 v/v) in order to counter-stain all stretched molecules. […] Length of the YOYO-1-stained DNA fibers were measured with internal software GVlab v0.4.6 (Genomic Vision S.A., Paris, France).

testicular cancer = settings: strongly reduced DNA repair capacity; cited from earlier work
[2] = test system: non-small cell lung cancer (NSCLC); settings: higher levels of DNA repair capacity; cited from earlier work

| SMILES | decay constants τ of exponential fit y=Ae^-x/τ of DNA size distribution as a function of H2O2 dose ([1]; 1, 5, 10 and 20 mM H2O2, 10 min, control excluded from linear fit) | length of stretched DNA strands (clustered oxidative damage) after Fpg treatment ([1]; cells incubated 10 min with 10 and 20 mM H2O2, compared to control sample) | survival rate after cisplatin treatment (testicular cancer) [%] | survival after cisplatin treatment [2] |
| --- | --- | --- | --- | --- |
| OO [H2O2] | decrease linearly | much shorter than in the control sample |  |  |
| N.N.[Cl][Pt][Cl] [cisplatin] |  |  | 95 | low survival |

Source: patent publication US20120076871A1, “METHOD FOR DETECTING, QUANTIFYING AND MAPPING DAMAGE AND/OR REPAIR OF DNA STRANDS” (GENOMIC VISION SA, priority 2010, published 2012)
